The source of these data is patent publication US20250099486A1, “WOUND HEALING MEDICAMENT” (The University of Sheffield, priority 2017, published 2025).

Series [1] relates to chorionic allantoic membrane (CAM). In words: CAM assay of deoxy sugar-loaded biomaterials (in ovo, implanted day 8, scored day 14). Format: in vivo, chicken (Gallus domesticus). The settings on record: loaded (1 mg/ml) in cross-linked chitosan/collagen hydrogels. As for the experimental part:
Fertilized chicken (Gallus domesticus) eggs were purchased from Big Bird (Raiwind road, Lahore, Pakistan) and incubated at 37° C. from day 2 of fertilization until day 8 in a humidified egg incubator (HHD, 435, China). At day 8, a square window (1 cm^2) was cut into the shell and removed, and a 2 cm^2 piece of the electrospun scaffold or hydrogels (16% PCL electrospun scaffold/CS/PVA hydrogel/CS/collagen hydrogels) placed onto the CAM. Each egg was implanted with one scaffold or hydrogel only.
The shell window was closed with parafilm (Bemis Flexible Packaging, USA) and sealed with adhesive tape. After implantation, eggs were placed again at 37° C. in a 40% humidified incubator until day 14. At day 14, biomaterials were retrieved and the eggs were sacrificed. Angiogenesis was quantified by taking light microscope pictures just before scaffold retrieval and then blindly scored by four assessors using histological images of the retrieved materials. The number of implanted and survived eggs is given in the caption of respective CAM assay figures.
D and L isomers of three-deoxysugars (ribose, fucose and rhamnose) were loaded onto the porous freeze gelated triethyl orthoformate (4%) covalently cross-linked chitosan/collagen (1:1) hydrogels. The hydrogels were soaked in an aqueous solution of sugars (1 mg/ml) and were further lyophilized (freeze dried) to produce porous membranes. As for the electrospun scaffold, the hydrogels were grafted into the fertilized eggs at day 8 and after day 14 the eggs were sacrificed and the effect of sugars on angiogenesis was investigated.

For series [2], the system named is CAM. Briefly: Ex-ovo CAM assay, direct application of substances. Type of series: in vivo, chicken (Gallus domesticus). The settings on record: over 4 days. On the procedure: (§1) All CAM experiments were carried out according to the Home Office, UK guidelines. Fertilised chicken eggs (Gallus domesticus) were purchased from Henry Stewart & Co. (MedEggs, Norwich, UK). The eggs were carefully wiped with 20% industrial methylated spirit (IMS) solution using hand paper towels in order to remove dirt and feathers from the shell. The eggs were then incubated at 37.5° C. until embryonic development day (EDD) 3, lying horizontally in an humidified egg incubator (RCOM King SURO, P&T Poultry, Powys, Wales).
(§2) On EDD3, the upper surface of the eggs were marked with a felt pen. The eggs were held horizontally (with the marked surface on top) and cracked on the edge of a 1000 ml glass beaker and kept close to the bottom surface of petri dishes. The embryos were then transferred gently into sterile petri dishes and kept in a humidified incubator (Binder, Tuttlingen, Germany) at 38° C.
Plastic rings (˜6.5 mm in diameter) were used as a reservoir for substances and a marker for the implantation area, were placed on the CAM, and the substances were applied as 20 μl volume onto the CAM twice a day to give a […] between EDD7 and EDD11. Images of the rings were acquired using a digital microscope at EDD11, and then 20% lens culinaris agglutinin (LCA) (Vector Laboratories, Peterborough, UK) was injected into the circulation for labelling the intravascular endothelial cells using 30G needles under a dissection microscope (Wild Heerbrugg, Heerbrugg, Switzerland). CAMs were then removed and fixed in 3.7% formaldehyde solution. Embryos were sacrificed at the end of EDD11. Fixed CAM samples were then imaged under a confocal microscope (Zeiss LSM 510 Meta, Jena, Germany) for investigating the effect of substances on the microvascular structure of the CAMs.
Blood vessels were quantified by segmentation of the images [C. Roma-Rodrigues, A. Heuer-Jungemann, A. R. Fernandes, A. G. Kanaras, P. V. Baptista, Peptide-coated gold nanoparticles for modulation of angiogenesis in vivo, IntJ Nanomedicine. 11 (2016) 2633-2639. doi: 10.2147/IJN.S108661] so as to include all discernible vessels and then counting the branch points and calculating average vessel lengths [D. Ribatti, B. Nico, A. Vacca, M. Presta, The gelatin sponge-chorioallantoic membrane assay, Nat Protoc. 1 (2006) 85-91. doi: 10.1038/nprot.2006.13, P. Brooks, A. P. Montgomery, D. Cheresh, Use of the 10-Day-Old Chick Embryo Model for Studying Angiogenesis, Integrin Protoc. 129 (1999) 257-269. doi: 10.1385/1-59259-249-X: 257] via multiple image processing steps. Firstly, the internal area of the ring was cropped, and the red, green and blue channels were split using Adobe Photoshop CS6 (ADOBE Systems Inc., San Jose, California, USA). The green channel was then imported to ImageJ (Wayne Rasband, National Institutes of Health, USA) for further analysis including unsharp mask filtering, enhancing the local contrast, noise removal and segmentation. Finally, the number of branch points was quantified using quantification software (AngioTool, National Cancer Institute, USA) (FIG. 14A) and average blood vessel lengths were calculated by using binary image histograms with known pixel/mm ratios in ImageJ (Wayne Rasband, National Institutes of Health, USA).
The percentage vascular area (VA %) of the microvasculature of CAMs were quantified using confocal images of rhodamine labelled lectin injected CAM samples as shown in FIG. 14B. To do this, images were imported to ImageJ (Wayne Rasband, National Institutes of Health, USA) and converted to binary images after filtering and smoothing processes prior to quantification. VA % was calculated using the histogram list of black and white areas in the image.
All chemicals were purchased from Sigma Aldrich unless indicated otherwise. […]

Series [3] in a line: E2 and 2dDR release from PHBV scaffolds in PBS. Type of series: physicochemical. The note with it: within 7 days. As for the experimental part: 10% (w/w) PHBV solution loaded was prepared prior to electrospinning. 1 g of PHBV granules (Goodfellow, London, UK) were dissolved in 1 g of methanol (Fisher Scientific, Massachusetts, USA) and 8 g of DCM (Fisher Scientific, Massachusetts, USA) in a fume hood. Four 10% PHBV solutions were prepared prior to addition of substances. Finally, 25 mg E2, 50 mg of E2, 250 mg of 2dDR and 500 mg of 2dDR were then added to each solution per 1 g of PHBV. The mixtures were magnetically stirred overnight.
Scaffolds were cut into pieces so to fit into an 6-well plate, weighed and submerged in 4 ml of PBS. The E2 and 2dDR concentrations released from each group (25 mg E2, 50 mg E2, 250 mg 2dDR, 500 mg 2dDR) were measured […] using a UV-VIS spectrophotometer (Thermo Fischer Evolution 220, Massachusetts, USA) at 238 nm for 2dDR and 220 nm for E2. Absorbance values were converted into concentrations using a standard curve of known concentrations of E2 and 2dDR.

For series [4], the system named is CAM. Briefly: Ex-ovo CAM assay, implantation of E2 and 2dDR releasing PHBV scaffolds. The note with it: for mean vessel count: control 23.1 (±1.24). Type of series: in vivo, chicken (Gallus domesticus). On the procedure:
as §1, §2
Scaffolds were cut into 5.5 mm diameter circles using a laser cutting machine (Epilog Laser Cutter, Clevedon, UK) and sterilised under UV light for 1 hour prior to implantation. Two circular scaffolds were placed on CAM at EDD8. Images of the scaffolds were acquired using a digital microscope at EDD 12 and EDD14. Microinjection of rhodamine labelled lectin into the circulation was performed, CAMs were removed and fixed in 3.7% formaldehyde solution. Embryos were then sacrificed at the end of EDD14. Angiogenesis was quantified by counting all blood vessels that converged towards the graft.
Haematoxylin and Eosin (H&E) staining was performed on cell impregnated scaffolds by modifiying a standard protocol. Briefly, fixed samples were embedded in optimal cutting temperature OCT and frozen in liquid nitrogen for 3 minutes. Sections were cut 8-10 μm thick using a cryostat (Leica Biosystems Nussloch, Germany) at −20° C. Sections were then stained with haematoxylin for 90 seconds and eosin for 5 minutes respectively. Finally H&E images were acquired under a light microscope (Motic DM-B1, Xiamen, China). The total number of blood vessels adjacent to the scaffolds were quantified by counting blood vessels in H&E sections [A. Minajeva, M. Kase, M. Saretok, A. Adamson-Raieste, S. Kase, K. Niinepuu, M Vardja, T. Asser, J. Jaal, Impact of Blood Vessel Quantity and Vascular Expression of CD133 and ICAM-1 on Survival of Glioblastoma Patients, Neurosci J. 2017 (2017) 8 pages] Briefly, all discernible blood vessels adjacent to the scaffolds were counted by two independent researchers using two independent microscopes at 10× magnification from the total of six different slides for each group and six different area of interest from each slide.

A further series concerns endothelial cell. The settings on record: in vitro; reported by Merchan et al. 2010; cited from earlier work.

Regarding `C[C@@H](O)[C@@H](O)[C@H](O)[C@H](O)C=O` [Deoxy-D-rhamnose, D-rhamnose, reference compound], the angiogenic response result in series [1] is on record as “only a marginal response”.

On to `C[C@]12CC[C@@H]3c4ccc(O)cc4CC[C@H]3[C@@H]1CC[C@@H]2O` [E2, Oestradiol, reference compound], for which the “increase of number of branch points compared to controls” value with CAM [2] (E2 100 ng/day) amounted to 1.3 fold; in the series with CAM [2] (E2 200 ng/day) it was 1.5 fold; in the series on CAM [2] (E2 600 ng/day), 1.4 fold. For the same compound, the “percentage vascular area (VA %) of microvasculature” value with CAM [2] (E2 200 ng/day, control 55.3%±3%) was 79.5%±5%. Besides, the “increase of average vessel length compared to controls” value in the series on CAM [2] (all E2 concentrations (100, 200, 600 ng/day)) is listed as 1.2 fold. Moreover, the “total release from scaffolds, of the initial amount present in the polymer solution” value in series [3] (25 mg E2 per 1 g PHBV scaffold) is listed as 1.3%; in series [3] (50 mg E2 per 1 g PHBV scaffold), 1.6%. In addition, the figures for the mean vessel count in the series on CAM [4] (25 mg E2 loaded PHBV scaffolds) and in the series on CAM [4] (50 mg E2 loaded PHBV scaffolds) were 49.5 (±0.92) and 37.9 (±1.05), respectively. Also, in the series with CAM [4] (all concentrations, compared with controls and CAM only groups), the “mean number of blood vessels adjacent to the scaffolds (H&E sections)” value was “significantly increased”. The “number of discernible blood vessels growing towards the scaffolds in comparison with plain PHBV scaffolds” value in the series with CAM [4] (all groups of releasing PHBV scaffolds) is “at least doubled”.

On to `C[C@@H](O)[C@H](O)[C@H](O)[C@@H](O)C=O` [Deoxy-D-fucose, D-fucose, reference compound], for which the angiogenic response entry in series [1] is reported as “no significant response”.

For the compound `O=CC[C@@H](O)[C@H](O)[C@H](O)CO` [2-DG, 2-deoxy-D-Glucose], the antiangiogenic activity entry in the series on endothelial cell is “inhibited endothelial capillary formation and endothelial cell migration”.
